Data published in patent US20210188843A1, “QUINOLINE COMPOUNDS AND THEIR PREPARATION AND USE AS ANTIMALARIAL AGENTS” (The United States of America,as represented by the …, priority 2018, published 2021).
≈ marks a conversion by molar mass, not a printed value. Where two headings read alike, the source gives them in different places.

Assays:
[1] = Microsomal stability (rat); assay type: in vitro ADME; conditions: rat microsomes
[2] = test system: Asexual parasites of P. falciparum strain 3D7; experiment: In vitro drug activity on asexual parasites (SYBR Green assay); assay type: cell-based; conditions: Plasmodium falciparum, P. falciparum 3D7 asexual stage, 72 h, read-out: Asexual EC50
Method in brief: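 3D7 asexual cultures at 0.5% parasitemia and 2% hematocrit were exposed to drug (DMSO <0.5%) for 72 h under standard culture conditions, in duplicate with no-drug and RBC-only controls. After freeze-thaw lysis, SYBR Green I lysis buffer was added for 30 min at room temperature; fluorescence was read at 490 nm excitation/520 nm emission.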

[3] = Solubility pH 7.4; assay type: physicochemical; conditions: aqueous buffer
[4] = PAMPA permeability; assay type: in vitro ADME
[5] = Table 3, read-out: Microsomal Stability (rat) T1/2
[6] = Table 1, read-out: Microsomal Stability (rat) T1/2

Row | half-life [1, 5] [min] | EC50 ([2]; Table 3) [nM] | solubility ([3]; Table 3) [µg/mL] | Papp ([4]; Table 3) [×10⁻⁶ cm/s] | half-life [1, 6] [min] | EC50 ([2]; Table 1) [nM] | solubility ([3]; Table 1) [µg/mL] | Papp ([4]; Table 1) [×10⁻⁶ cm/s] | SMILES
1 | > 30 | 220 | 16.3 (≈ 42.1 µM) | 397 | – | – | – | – | Cn1c(=N)n(-c2cncnc2)c2c3cc(-c4ccc(Cl)cc4)ccc3ncc21
2 | > 30 | 721 | 24.7 (≈ 61.6 µM) | 1290 | – | – | – | – | Cc1ncncc1-n1c(=N)n(C)c2cnc3ccc(-c4ccc(Cl)cc4)cc3c21
3 | > 30 | 538 | 6.2 (≈ 16.1 µM) | 1180 | – | – | – | – | Cc1ncncc1-n1c(=N)n(C)c2cnc3ccc(-c4ccc(F)cc4)cc3c21
4 | > 30 | 1150 | > 38 | 1240 | – | – | – | – | Cc1ccc(-c2ccc3ncc4c(c3c2)n(-c2cncnc2C)c(=N)n4C)cc1
5 | > 30 | 1240 | > 38 | 1100 | – | – | – | – | Cc1ncncc1-n1c(=N)n(C)c2cnc3ccc(-c4cccc(F)c4)cc3c21
6 | > 30 | 391 | 22.9 (≈ 44.6 µM) | 292 | – | – | – | – | CC(=O)N1CCN(c2ncc(-n3c(=N)n(C)c4cnc5ccc(-c6ccc(Cl)cc6)cc5c43)cn2)CC1
7 | > 30 | 17 | > 61 | 510 | – | – | – | – | COc1ccc(-c2ccc3ncc4c(c3c2)n(-c2cncnc2)c(=N)n4C)cc1OC
8 | > 30 | 560 | 31 (≈ 73.6 µM) | 541 | – | – | – | – | Cn1c(=N)n(-c2cncnc2)c2c3cc(-c4ccc(C(F)(F)F)nc4)ccc3ncc21
9 | > 30 | 190 | > 54 | 136 | – | – | – | – | Cc1ccc(-c2ccc3ncc4c(c3c2)n(-c2cncnc2)c(=N)n4C)cn1
10 | > 30 | 1050 | 34.5 (≈ 90 µM) | 684 | – | – | – | – | COc1ccc(-c2ccc3ncc4c(c3c2)n(-c2cncnc2)c(=N)n4C)cn1
11 | – | – | – | – | > 30 | 11.9 | 3.7 (≈ 8.6 µM) | 34.1 | Cc1ccc(C#N)cc1-n1/c(=N/C#N)n(C)c2cnc3ccc(-c4ccc(N)nc4)cc3c21 [Compound 4, (E)-N-(8-(6-aminopyridin-3-yl)-1-(5-cyano-2-methylphenyl)-3-methyl-1,3-dihydro-2H-imidazo[4,5-c]quinolin-2-ylidene)cyanamide]
12 | – | – | – | – | > 30 | 154 | 42.5 (≈ 108 µM) | 219 | Cc1ccc(C#N)cc1-n1c(=N)n(C)c2cnc3ccc(-c4ccnn4C)cc3c21 [Compound 5, 3-(2-imino-3-methyl-8-(1-methyl-1H-pyrazol-5-yl)-2,3-dihydro-1H-imidazo[4,5-c]quinolin-1-yl)-4-methylbenzonitrile]
13 | – | – | – | – | > 30 | 279 | 9.6 (≈ 21.9 µM) | 921 | C/N=c1\n(C)c2cnc3ccc(-c4ccc(Cl)cc4)cc3c2n1-c1cc(C#N)ccc1C [Compound 6, (E)-3-(8-(4-chlorophenyl)-3-methyl-2-(methylimino)-2,3-dihydro-1H-imidazo[4,5-c]quinolin-1-yl)-4-methylbenzonitrile]
14 | – | – | – | – | > 30 | 59.8 | < 1 | 1190 | Cc1ccc(C#N)cc1-n1/c(=N/C#N)n(C)c2cnc3ccc(-c4ccc(Cl)cc4)cc3c21 [Compound 8, (E)-N-(8-(4-chlorophenyl)-1-(5-cyano-2-methylphenyl)-3-methyl-1,3-dihydro-2H-imidazo[4,5-c]quinolin-2-ylidene)cyanamide]
15 | – | – | – | – | > 30 | 38.5 | < 1 | 526 | CCC(=O)/N=c1\n(C)c2cnc3ccc(-c4ccc(Cl)cc4)cc3c2n1-c1cc(C#N)ccc1C [Compound 9, (E)-N-(8-(4-chlorophenyl)-1-(5-cyano-2-methylphenyl)-3-methyl-1,3-dihydro-2H-imidazo[4,5-c]quinolin-2-ylidene)propionamide]
16 | – | – | – | – | > 30 | 48.2 | 3.1 (≈ 7.56 µM) | 1000 | Cn1c(=N)n(-c2cccc(C#N)c2)c2c3cc(-c4ccc(Cl)cc4)ccc3ncc21 [Compound 11, 3-(8-(4-chlorophenyl)-2-imino-3-methyl-2,3-dihydro-1H-imidazo[4,5-c]quinolin-1-yl)benzonitrile]
17 | – | – | – | – | > 30 | 64.4 | 3.9 (≈ 9.57 µM) | 1030 | Cc1ccc(C#N)cc1-n1c(=N)n(C)c2cnc3ccc(-c4ccc(F)cc4)cc3c21 [Compound 12, 3-(8-(4-fluorophenyl)-2-imino-3-methyl-2,3-dihydro-1H-imidazo[4,5-c]quinolin-1-yl)-4-methylbenzonitrile]
18 | – | – | – | – | 16.9 | 564 | < 1 | 247 | CSc1ccc(C#N)cc1-n1/c(=N/C#N)n(C)c2cnc3ccc(-c4ccc(Cl)cc4)cc3c21 [Compound 18, (E)-N-(8-(4-chlorophenyl)-1-(5-cyano-2-(methylthio)phenyl)-3-methyl-1,3-dihydro-2H-imidazo[4,5-c]quinolin-2-ylidene)cyanamide]
19 | – | – | – | – | > 30 | 317 | 4.4 (≈ 8.63 µM) | 1560 | Cc1nc(N2CCOCC2)c(C#N)cc1-n1c(=N)n(C)c2cnc3ccc(-c4ccc(Cl)cc4)cc3c21 [Compound 21, 5-(8-(4-chlorophenyl)-2-imino-3-methyl-2,3-dihydro-H-imidazo[4,5-c]quinolin-1-yl)-6-methyl-2-morpholinonicotinonitrile]
20 | – | – | – | – | > 30 | 63.9 | < 1 | 340 | Cc1cc(N2CCOCC2)c(C#N)cc1-n1c(=N)n(C)c2cnc3ccc(-c4ccc(Cl)cc4)cc3c21 [Compound 23, 5-(8-(4-chlorophenyl)-2-imino-3-methyl-2,3-dihydro-1H-imidazo[4,5-c]quinolin-1-yl)-4-methyl-2-morpholinobenzonitrile]
21 | – | – | – | – | > 30 | 980 | > 44 | 405 | Cc1ccc(C#N)cc1-n1c(=N)n(C)c2cnc3ccc(-c4cccc(CN(C)C)c4)cc3c21 [Compound 24, 3-(8-(3-((dimethylamino)methyl)phenyl)-2-imino-3-methyl-2,3-dihydro-1H-imidazo[4,5-c]quinolin-1-yl)-4-methylbenzonitrile]
22 | – | – | – | – | > 30 | 118 | > 41 | 1430 | Cc1ccc(C#N)cc1-n1c(=N)n(C)c2cnc3ccc(-c4cccc(C#N)c4)cc3c21 [Compound 25, 3-(8-(3-cyanophenyl)-2-imino-3-methyl-2,3-dihydro-1H-imidazo[4,5-c]quinolin-1-yl)-4-methylbenzonitrile]
23 | – | – | – | – | > 30 | 529 | < 1 | 1670 | Cn1c(=N)n(-c2cccc(C(F)(F)F)c2)c2c3cc(-c4ccc(Cl)cc4)ccc3ncc21 [Compound 26, 8-(4-chlorophenyl)-3-methyl-1-(3-(trifluoromethyl)phenyl)-1,3-dihydro-2H-imidazo[4,5-c]quinolin-2-imine]
24 | – | – | – | – | > 30 | 138 | < 1 | 1610 | Cc1ccc(C(F)(F)F)cc1-n1c(=N)n(C)c2cnc3ccc(-c4ccc(Cl)cc4)cc3c21 [Compound 27, 8-(4-chlorophenyl)-3-methyl-1-(2-methyl-5-(trifluoromethyl)phenyl)-1,3-dihydro-2H-imidazo[4,5-c]quinolin-2-imine]
25 | – | – | – | – | > 30 | 186 | < 1 | 226 | Cn1c(=N)n(-c2cccc(Cl)c2)c2c3cc(-c4ccc(Cl)cc4)ccc3ncc21 [Compound 28, 1-(3-chlorophenyl)-8-(4-chlorophenyl)-3-methyl-1,3-dihydro-2H-imidazo[4,5-c]quinolin-2-imine]
26 | – | – | – | – | > 30 | 136 | < 1 | 1680 | Cc1ccc(Cl)cc1-n1c(=N)n(C)c2cnc3ccc(-c4ccc(Cl)cc4)cc3c21 [Compound 29, 1-(5-chloro-2-methylphenyl)-8-(4-chlorophenyl)-3-methyl-1,3-dihydro-2H-imdazo[4,5-c]quinolin-2-imine]
27 | – | – | – | – | > 30 | 60.3 | 7.3 (≈ 16.3 µM) | 1210 | Cc1ccc(C#N)cc1-n1c(=N)n(C)c2cnc3ccc(-c4ccc(Cl)c(C#N)c4)cc3c21 [Compound 30, 2-chloro-5-(1-(5-cyano-2-methylphenyl)-2-imino-3-methyl-2,3-dihydro-1H-imidazo[4,5-c]quinolin-8-yl)benzonitrile]
28 | – | – | – | – | > 30 | 27.2 | < 1 | 433 | COc1cc(-c2ccc3ncc4c(c3c2)n(-c2cc(C#N)ccc2C)c(=N)n4C)ccc1Cl [Compound 31, 3-(8-(4-chloro-3-methoxyphenyl)-2-imino-3-methyl-2,3-dihydro-1H-imidazo[4,5-c]quinolin-1-yl)-4-methylbenzonitrile]
29 | – | – | – | – | > 30 | 420 | > 42 | 678 | COc1cccc(-c2ccc3ncc4c(c3c2)n(-c2cc(C#N)ccc2C)c(=N)n4C)c1 [Compound 32, 3-(2-imino-8-(3-methoxyphenyl)-3-methyl-2,3-dihydro-H-imidazo[4,5-c]quinolin-1-yl)-4-methylbenzonitrile]
30 | – | – | – | – | > 30 | 297 | 14.5 (≈ 34.2 µM) | 1820 | Cc1ccc(C#N)cc1-n1c(=N)n(C)c2cnc3ccc(-c4cccc(Cl)c4)cc3c21 [Compound 33, 3-(8-(3-chlorophenyl)-2-imino-3-methyl-2,3-dihydro-1H-imidazo[4,5-c]quinolin-1-yl)-4-methylbenzonitrile]
